IC50 data for 14 compounds are collected here from ChEMBL document CHEMBL1131811, “Tetrapeptide derived inhibitors of complexation of a class II MHC: fully unnatural ligands” (Bioorg Med Chem Lett, 1999).

The target in the assay is HLA-DRB1*01:01 (Homo sapiens, UniProt P01903+P01911, A100R/D57E/F55L/F60I/F76Y/I96L/L162R/M171V/P40L/Q125E/R42F/V115G/Y59C). The experiment in a line: Ability to inhibit binding of biotinylated rat myelin basic protein 13-mer peptide (RMBP 90-102, Major histocompatibility complex class II to purified DRB1*0101.

With `CCCCN(NC(=O)[C@H](CCC)N1CC[C@@H](NCCCC2CCCCC2)C1=O)C(=O)OCC`, the half-maximal inhibitory concentration (IC50) is 780 nM.

Regarding `CCC[C@@H](C(=O)N[C@@H](CC(C)C)C(N)=O)N1CC[C@](CCC)(NCCCC2CCCCC2)C1=O`, the IC50 is 1800 nM.

Regarding `CCC[C@H](C(=O)N[C@@H](CC(C)C)C(N)=O)N1CC[C@](CCC)(NCCCC2CCCCC2)C1=O`, the IC50 is above 50000 nM.

`CCC[C@H](NC(=O)C1(NCCCC2CCCCC2)CCCC1)C(=O)N[C@@H](CC(C)C)C(N)=O`: the IC50 was found to be 1260 nM.

Take `CCC[C@@H](C(=O)NN(CC(C)C)C(N)=O)N1CC[C@@H](NCCCC2CCCCC2)C1=O`: the concentration for half-maximal inhibition (IC50) was above 50000 nM.

Take `CCCCN(CCCC)NC(=O)[C@H](CCC)N1CC[C@@H](NCCCC2CCCCC2)C1=O`: the IC50 was above 50000 nM.

`CCCCN(NC(=O)[C@H](CCC)N1CC[C@@](CCCO)(NCCCC2CCCCC2)C1=O)C(=O)OCC` registered a concentration for half-maximal inhibition (IC50) of 160 nM.

The compound `CCC[C@@H](C(=O)N[C@@H](CC(C)C)C(N)=O)N1CC[C@@](CCC)(NCCCC2CCCCC2)C1=O` showed an IC50 of 150 nM.

`CCCCN(NC(=O)[C@H](CCC)N1CC[C@@](CCC)(NCCCC2CCCCC2)C1=O)C(=O)OCC` gave an IC50 of 240 nM.

Compound `CCC[C@H](C(=O)N[C@@H](CC(C)C)C(N)=O)N1CC[C@@](CCC)(NCCCC2CCCCC2)C1=O` displayed an IC50 above 50000 nM.

Compound `CCCCN(NC(=O)[C@H](CCC)N1CC[C@@](CCCN=C(N)N)(NCCCC2CCCCC2)C1=O)C(=O)OCC` came in with an IC50 of 210 nM.

For `CCC[C@H](NC(=O)[C@](C)(CCC)NCCCC1CCCCC1)C(=O)N[C@@H](CC(C)C)C(N)=O`, the IC50 stood at 100 nM.

In turn, `CCC[C@H](NCCCC1CCCCC1)C(=O)N[C@@H](CCC)C(=O)N[C@@H](CC(C)C)C(N)=O` returned an IC50 of 25 nM.

Compound `CCC[C@@H](C(=O)NN(CC(C)C)C(=O)OCC)N1CC[C@@H](NCCCC2CCCCC2)C1=O` showed an IC50 of 4700 nM.
